Results taken from publication PMC7576608, “Mechanisms of telomerase inhibition by oxidized and therapeutic dNTPs” (Nature Communications, 2020).
Several values for one entry are separate records, joined by “and”; a condition that tells them apart may be missing. Equal entries are not always repeated.

Molecular target: telomerase (Homo sapiens, UniProt O14746)
Experiment: Direct telomerase repeat addition assay with radiolabeled dNTPs: dNTP titration, repeat processivity R1/2
Assay type: biochemical
Design: made in house; anti-FLAG immunopurification, eluted with 3xFLAG peptide
Details: for Processivity R 1/2: (TTAGGG)3 primer, remaining three natural dNTPs at cellular concentration
Procedure: This preparation, termed super telomerase, has kinetic properties similar to endogenous telomerase (Supplementary Fig. 1)[29]–[31]. […] Repeat processivity was measured using the convention of calculating the number of repeats synthesized before half of the DNA substrates dissociate from telomerase[33] (Supplementary Fig. 2). 8-oxo-dGTP served as a control since it is an established telomerase chain terminator[12].
Fig. 2 Oxidized and therapeutic dNTPs inhibit telomerase processivity. […] The loading control (*) was a ^32P-end labeled 18-mer oligonucleotide. Numbers on the left indicate the number of added repeats; letters on the right indicate template residue. Images are representative of three independent experiments.
The telomerase assay was as described. […] Reactions containing the modified dNTPs (Trilink Biotechnologies) substituted for their natural dNTP analog are indicated in the figure legends. The reactions were started by the addition of 3 μl (~35 fmol) of immunopurified telomerase eluent, incubated at 37 °C for 1 h, then terminated with 2 μl of […] EDTA and heat inactivated at 65 °C for 20 min. ^32P-end labeled 18-mer loading control (8 fmol) was added to the terminated reactions before purification with an Illustra Microspin G-25 column (GE Healthcare). An equal volume of loading buffer (94% formamide, 0.1× TBE, 0.1% bromophenol blue, 0.1% xylene cyanol) was added to the reaction eluent from the G-25 spin column. The samples were heat denatured for 10 min at 100 °C and loaded onto a 14% denaturing polyacrylamide gel (7 M urea, 1× TBE) and electrophoresed for 90 min at constant 38 W. Samples were imaged using a Typhoon phosphorimager (GE Healthcare).
The processivity was calculated as described[40],[67]. Repeat processivity from the direct telomerase extension assays was calculated as R1/2 (equivalent to the half-time for decay in an exponential time course), which represents the median length of DNA product formed, expressed in terms of number of telomere repeats. First, the total volume counts for each product band extend by one or more telomere repeats were obtained using Image Quant TL. The volume counts were then normalized by dividing by the number of radiolabeled guanosines incorporated into the extended products based on the number of repeats added, termed corrected volume (corr vol). The “percent left behind” (%LB) was calculated for each product band by summing the counts for that product band and for every product band below (shorter products), divided by the total counts for the lane, and then multiplied by 100. The natural log of (100−%LB) was calculated and then plotted vs. repeat number for each product length. A linear regression line was fit to the data to determine the slope of the line. The R1/2 value was calculated by dividing −ln(2) by the slope of each fitted line (R1/2 = −ln(2)/slope).
Number of Repeats Number of Repeats Number of Repeats Number of Repeats
Supplementary Fig 2.Telomerase dNTP titrations and processivity calculations. Telomerase reactions were conducted with (TTAGGG) 3 primer 1 and cellular-concentration dNTPs except that the […]
The loading control (LC) was a 32P-end labeled 18-mer. Numbers on the left indicate the number of added repeats. (d) Processivity was calculated as R1/2 (see Methods). (e) The natural log of (100-%LB) was plotted vs repeat number. A straight line was fit to the data and the R1/2 was calculated by dividing –ln(2) by the slope of each line. Plots shown from one experiment. Images ( a-c) and plots ( e) are representative of, and data are mean + s. d. (d) from, three independent experiments. Source data are provided as a Source Data file.
(1 picture or pasted object on this page, not shown here)

[1] = indicated dNTP at 0.5 μM, n1-n3
[2] = 5μM titrated dNTP, telomere repeat 1
[3] = 25μM titrated dNTP, telomere repeat 1

Sequence of telomerase (O14746 whole entry): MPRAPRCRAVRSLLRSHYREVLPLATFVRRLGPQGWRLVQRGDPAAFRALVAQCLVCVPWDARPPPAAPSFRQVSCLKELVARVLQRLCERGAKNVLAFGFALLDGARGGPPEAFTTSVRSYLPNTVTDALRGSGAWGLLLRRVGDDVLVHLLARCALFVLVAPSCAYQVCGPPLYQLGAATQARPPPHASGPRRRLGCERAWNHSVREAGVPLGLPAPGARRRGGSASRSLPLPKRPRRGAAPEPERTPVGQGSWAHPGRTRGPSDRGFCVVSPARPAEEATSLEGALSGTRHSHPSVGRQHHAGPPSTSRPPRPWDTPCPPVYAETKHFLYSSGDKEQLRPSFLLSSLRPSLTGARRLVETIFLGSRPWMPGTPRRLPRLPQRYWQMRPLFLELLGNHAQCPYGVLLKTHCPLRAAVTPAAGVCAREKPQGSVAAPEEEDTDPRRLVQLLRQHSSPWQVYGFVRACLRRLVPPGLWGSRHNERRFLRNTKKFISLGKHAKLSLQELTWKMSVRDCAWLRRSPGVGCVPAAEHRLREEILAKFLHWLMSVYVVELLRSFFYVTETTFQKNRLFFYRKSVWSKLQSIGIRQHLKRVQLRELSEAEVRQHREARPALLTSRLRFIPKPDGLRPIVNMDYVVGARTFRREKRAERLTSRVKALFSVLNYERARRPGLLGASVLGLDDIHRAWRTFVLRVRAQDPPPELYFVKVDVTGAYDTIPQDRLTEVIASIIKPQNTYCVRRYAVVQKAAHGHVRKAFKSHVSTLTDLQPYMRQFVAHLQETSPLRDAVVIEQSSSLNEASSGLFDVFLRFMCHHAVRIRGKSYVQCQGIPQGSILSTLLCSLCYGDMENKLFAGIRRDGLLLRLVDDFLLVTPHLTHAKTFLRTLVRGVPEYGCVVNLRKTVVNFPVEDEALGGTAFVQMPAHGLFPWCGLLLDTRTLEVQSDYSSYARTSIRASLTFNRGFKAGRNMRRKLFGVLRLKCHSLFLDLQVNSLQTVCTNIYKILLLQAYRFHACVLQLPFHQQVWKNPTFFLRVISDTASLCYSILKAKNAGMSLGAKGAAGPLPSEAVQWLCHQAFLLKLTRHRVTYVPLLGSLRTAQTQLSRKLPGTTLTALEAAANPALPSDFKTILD

Compound	Processivity R 1/2 (indicated dNTP at 0.5 μM, Mean)	Processivity R 1/2 [1]	Processivity R 1/2 (indicated dNTP at 1 μM, Mean)	Processivity R 1/2 (indicated dNTP at 1 μM, n1-n3)	Processivity R 1/2 (indicated dNTP at 5 μM, Mean)	Processivity R 1/2 (indicated dNTP at 5 μM, n1-n3)	Processivity R 1/2 (indicated dNTP at 24 μM, Mean)	Processivity R 1/2 (indicated dNTP at 24 μM, n1-n3)	further results
Nc1nc(O)nc2c1ncn2C1CC(O)C(COP(=O)(O)OP(=O)(O)OP(=O)(O)O)O1 (stereo not shown) [2-OH-dATP]	0.46	0.46 and 0.39 and 0.53	0.43	0.30 and 0.39 and 0.59	0.57	0.42 and 0.69 and 0.61	0.66	0.46 and 0.70 and 0.83	YIntercept (best-fit line of ln(100-%LB) vs repeat number) (2-OH-dATP 0.5μM, single experiments): 2.12 and 4.01 and 2.03; YIntercept (best-fit line of ln(100-%LB) vs repeat number) (2-OH-dATP 1μM, single experiments): 2.17 and 3.36 and 2.82; ln(100-%LB) (2-OH-dATP 5μM, 1 telomere repeat, single experiments): 1.89 and 1.96 and 2.94; YIntercept (best-fit line of ln(100-%LB) vs repeat number) (2-OH-dATP 5μM, single experiments): 3.87 and 3.78 and 4.14; ln(100-%LB) (2-OH-dATP 25μM, 1 telomere repeat, single experiments): 2.24 and 2.45; ln(100-%LB) (2-OH-dATP 25μM, 2 telomere repeats, single experiments): 0.15 and 0.23; YIntercept (best-fit line of ln(100-%LB) vs repeat number) (2-OH-dATP 25μM, single experiments): 3.63 and 4.14
Nc1nc2c(ncn2C2CC(O)C(COP(=O)(O)OP(=O)(O)OP(=O)(O)O)O2)c(=S)[nH]1 (stereo not shown) [6-thio-dGTP]	0	0	0	0	0	0	0	0	
Nc1ncnc2c1[nH]c(=O)n2C1CC(O)C(COP(=O)(O)OP(=O)(O)OP(=O)(O)O)O1 (stereo not shown) [8-oxo-dATP]	0	0	0	0	0	0	0	0	
Nc1nc2c([nH]c(=O)n2C2CC(O)C(COP(=O)(O)OP(=O)(O)OP(=O)(O)O)O2)c(=O)[nH]1 (stereo not shown) [8-oxo-dGTP]	0	0	0	0	0	0	0	0	
Cc1cn([C@H]2C[C@H](N=[N+]=[N-])[C@@H](CO[P@](=O)(O)O[P@](=O)(O)OP(=O)(O)O)O2)c(=O)[nH]c1=O [AZT-TP]	0	0	0	0	0	0	0	0	
Nc1ncnc2c1ncn2C1CC(O)C(COP(=O)(O)OP(=O)(O)OP(=O)(O)O)O1 (stereo not shown) [dATP]	1.28	0.99 and 1.34 and 1.51	1.47	1.33 and 1.42 and 1.67	2.10	1.66 and 2.20 and 2.43	2.21	1.90 and 2.36 and 2.37	YIntercept (line, best-fit value) of ln(100-%LB) vs # telomere repeats (0.5μM titrated dNTP): 4.31 and 3.25 and 4.01; YIntercept (line, best-fit value) of ln(100-%LB) vs # telomere repeats (1μM titrated dNTP): 4.44 and 2.47 and 4.49; ln(100-%LB) (1μM titrated dNTP, telomere repeat 3): 2.47 and 1.35 and 2.09; YIntercept (line, best-fit value) of ln(100-%LB) vs # telomere repeats (5μM titrated dNTP): 4.00 and 3.98 and 2.64; ln(100-%LB) [2]: 3.97 and 2.20; ln(100-%LB) (5μM titrated dNTP, telomere repeat 2): 3.54 and 1.95; ln(100-%LB) (5μM titrated dNTP, telomere repeat 3): 3.04 and 3.01 and 1.68; YIntercept (line, best-fit value) of ln(100-%LB) vs # telomere repeats (25μM titrated dNTP): 3.73 and 2.10; ln(100-%LB) [3]: 3.90 and 2.05
Nc1nc2c(ncn2C2CC(O)C(COP(=O)(O)OP(=O)(O)OP(=O)(O)O)O2)c(=O)[nH]1 (stereo not shown) [dGTP]	1.69	1.96 and 1.27 and 1.84	1.78	1.97 and 1.53 and 1.85	2.39		5.11		ln(100-%LB) (0.5μM titrated dNTP, telomere repeat 8): -4.24; ln(100-%LB) (0.5μM titrated dNTP, telomere repeat 9): -4.48; ln(100-%LB) (0.5μM titrated dNTP, telomere repeat 10): -4.75; ln(100-%LB) (0.5μM titrated dNTP, telomere repeat 11): -4.99
Cc1cn(C2CC(O)C(COP(=O)(O)OP(=O)(O)OP(=O)(O)O)O2)c(=O)[nH]c1=O (stereo not shown) [dTTP]	1.28	1.27 and 1.42 and 1.15	1.90	1.45 and 1.97 and 2.27	2.06	1.59 and 1.96 and 2.62	1.95		YIntercept (line, best-fit value) of ln(100-%LB) vs # telomere repeats (0.5μM titrated dNTP): 4.06 and 3.53 and 2.25; YIntercept (line, best-fit value) of ln(100-%LB) vs # telomere repeats (1μM titrated dNTP): 3.61 and 3.41 and 1.82; ln(100-%LB) (1μM titrated dNTP, telomere repeat 1): 3.41 and 3.35 and 1.72; ln(100-%LB) [2]: 1.67 and 3.31 and 3.28; YIntercept (line, best-fit value) of ln(100-%LB) vs # telomere repeats (25μM titrated dNTP): 3.33 and 3.39 and 1.96; ln(100-%LB) [3]: 3.18 and 3.21 and 2.13; ln(100-%LB) (25μM titrated dNTP, telomere repeat 2): 2.32 and 2.36 and 1.43; ln(100-%LB) (25μM titrated dNTP, telomere repeat 3): 1.64 and 1.63 and 0.90
O=c1[nH]cnc2c1ncn2C1CCC(COP(=O)(O)OP(=O)(O)OP(=O)(O)O)O1 (stereo not shown) [ddITP]	0	0	0	0	0	0	0	0	
